In patent US9771360B2, “Cyano-substituted imidazo[1,2-A]pyridinecarboxamides and their use” (Bayer Pharma Aktiengesellschaft, priority 2014, dated 2017):

Molecular target: T1, recombinant guanylate cyclase reporter cell line (Rattus norvegicus, UniProt P19686+P20595)
T1 construct: expressed in transfected cells
T1 sequence (P20595 1-619): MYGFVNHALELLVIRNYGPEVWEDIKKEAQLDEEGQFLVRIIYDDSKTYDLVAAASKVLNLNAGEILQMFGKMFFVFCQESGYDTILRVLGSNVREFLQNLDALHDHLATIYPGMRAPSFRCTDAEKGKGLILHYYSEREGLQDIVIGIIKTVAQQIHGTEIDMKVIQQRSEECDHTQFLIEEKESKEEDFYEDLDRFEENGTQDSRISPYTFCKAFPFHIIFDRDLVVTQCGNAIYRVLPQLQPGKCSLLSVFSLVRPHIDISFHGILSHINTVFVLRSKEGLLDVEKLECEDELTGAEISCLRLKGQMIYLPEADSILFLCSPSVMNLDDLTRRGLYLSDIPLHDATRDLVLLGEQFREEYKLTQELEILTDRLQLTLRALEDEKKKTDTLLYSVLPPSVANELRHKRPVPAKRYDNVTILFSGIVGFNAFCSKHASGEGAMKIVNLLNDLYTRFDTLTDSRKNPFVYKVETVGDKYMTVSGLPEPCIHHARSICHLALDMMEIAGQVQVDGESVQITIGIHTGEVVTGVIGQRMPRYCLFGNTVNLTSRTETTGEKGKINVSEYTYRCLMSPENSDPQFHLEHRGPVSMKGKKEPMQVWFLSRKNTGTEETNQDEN
T1 sequence (P19686 1-690): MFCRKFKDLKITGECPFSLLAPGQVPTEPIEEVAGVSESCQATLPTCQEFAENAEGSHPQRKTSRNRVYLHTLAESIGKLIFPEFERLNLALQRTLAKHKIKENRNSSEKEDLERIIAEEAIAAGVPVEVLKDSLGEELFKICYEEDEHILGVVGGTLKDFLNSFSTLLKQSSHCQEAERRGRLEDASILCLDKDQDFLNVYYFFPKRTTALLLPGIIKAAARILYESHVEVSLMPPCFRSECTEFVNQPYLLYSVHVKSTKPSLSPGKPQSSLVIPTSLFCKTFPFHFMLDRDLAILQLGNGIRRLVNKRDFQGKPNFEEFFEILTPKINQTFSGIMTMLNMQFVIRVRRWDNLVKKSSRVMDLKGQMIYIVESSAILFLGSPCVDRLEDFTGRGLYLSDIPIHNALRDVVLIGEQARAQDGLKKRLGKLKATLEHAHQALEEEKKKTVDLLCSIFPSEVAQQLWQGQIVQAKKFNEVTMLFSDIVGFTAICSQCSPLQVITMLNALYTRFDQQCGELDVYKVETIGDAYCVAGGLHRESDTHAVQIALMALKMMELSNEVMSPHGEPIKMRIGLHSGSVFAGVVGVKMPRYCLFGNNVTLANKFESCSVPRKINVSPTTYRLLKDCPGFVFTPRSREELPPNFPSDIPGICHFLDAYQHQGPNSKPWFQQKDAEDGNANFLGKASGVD
Test: Effect on a recombinant guanylate cyclase reporter cell line (B-2)
Assay type: cell-based
Conditions: MEC = minimum effective concentration; in some cases mean values from individual determinations
Procedure: B-2. Effect on a Recombinant Guanylate Cyclase Reporter Cell Line
The cellular activity of the compounds according to the invention is determined using a recombinant guanylate cyclase reporter cell line, as described in F. Wunder et al., Anal. Biochem. 339, 104-112 (2005).
Representative MEC values (MEC=minimum effective concentration) for the compounds of the invention are shown in the table below (in some cases as mean values from individual determinations): […]

MEC | SMILES
0.3 µM | CCc1nc2c(OCc3c(F)cccc3F)cc(C)cn2c1C(=O)NC(C#N)c1ccc(Cl)cc1 (racemic) [Example 27, rac-N-[(4-chlorophenyl)(cyano)methyl]-8-[(2,6-difluorobenzyl)oxy]-2-ethyl-6-methylimidazo[1,2-a]pyridine-3-carboxamide]
0.1 µM | Cc1cc(OCc2c(F)cccc2F)c2nc(C)c(C(=O)NCCCCCC#N)n2c1 [Example 10, N-(5-cyanopentyl)-8-[(2,6-difluorobenzyl)oxy]-2,6-dimethylimidazo[1,2-a]pyridine-3-carboxamide]
1 µM | Cc1cc(OCc2c(F)cccc2F)c2nc(C)c(C(=O)NCC(N)CCCC#N)n2c1 (single isomer, unassigned) [Example 47, ent-N-(2-Amino-5-cyanopentyl)-8-[(2,6-difluorobenzyl)oxy]-2,6-dimethylimidazo[1,2-a]pyridine-3-carboxamide]
0.1 µM | Cc1cc(OCc2c(F)cccc2F)c2nc(C)c(C(=O)NC(C)(C)C#N)n2c1 [Example 3, N-(2-cyanopropan-2-yl)-8-[(2,6-difluorobenzyl)oxy]-2,6-dimethylimidazo[1,2-a]pyridine-3-carboxamide]
1 µM | Cc1cc(OCc2c(F)cccc2F)c2nc(C)c(C(=O)NCC(N)CC#N)n2c1 (single isomer, unassigned) [Example 43, ent-N-(2-Amino-3-cyanopropyl)-8-[(2,6-difluorobenzyl)oxy]-2,6-dimethylimidazo[1,2-a]pyridine-3-carboxamide]
0.3 µM | Cc1cc(OCc2c(F)cccc2F)c2nc(C)c(C(=O)NC3CNCC(C#N)C3)n2c1 (stereo not shown) [Example 38, N-(5-Cyanopiperidin-3-yl)-8-[(2,6-difluorobenzyl)oxy]-2,6-dimethylimidazo[1,2-a]pyridine-3-carboxamide]
2 µM | Cc1cc(OCc2c(F)cccc2F)c2nc(C)c(C(=O)NCC(N)CCCC#N)n2c1 (racemic) [Example 45, rac-N-(2-Amino-5-cyanopentyl)-8-[(2,6-difluorobenzyl)oxy]-2,6-dimethylimidazo[1,2-a]pyridine-3-carboxamide]
0.1 µM | Cc1cc(OCc2c(F)cccc2F)c2nc(C)c(C(=O)NC(C#N)c3ccc(Cl)cc3)n2c1 (racemic) [Example 8, rac-N-[(4-chlorophenyl)(cyano)methyl]-8-[(2,6-difluorobenzyl)oxy]-2,6-dimethylimidazo[1,2-a]pyridine-3-carboxamide]
0.3 µM | COc1ccc(NC(=O)c2c(C)nc3c(OCc4c(F)cccc4F)cc(C)cn23)cc1C#N [Example 37, N-(3-cyano-4-methoxyphenyl)-8-[(2,6-difluorobenzyl)oxy]-2,6-dimethylimidazo[1,2-a]pyridine-3-carboxamide]
1 µM | Cc1cc(OCc2c(F)cccc2F)c2nc(C)c(C(=O)NC(C#N)C(N)=O)n2c1 (racemic) [Example 34, rac-N-(2-amino-1-cyan-2-oxoethyl)-8-[(2,6-difluorobenzyl)oxy]-2,6-dimethylimidazo[1,2-a]pyridine-3-carboxamide]
0.55 µM | Cc1cc(OCc2c(F)cccc2F)c2nc(C)c(C(=O)NC(C)C#N)n2c1 (racemic) [Example 1, rac-N-(1-Cyanoethyl)-8-[(2,6-difluorobenzyl)oxy]-2,6-dimethylimidazo[1,2-a]pyridine-3-carboxamide]
1 µM | Cc1cc(OCc2c(F)cccc2F)c2nc(C)c(C(=O)NCC(N)CC#N)n2c1 (single isomer, unassigned) [Example 42, ent-N-(2-Amino-3-cyanopropyl)-8-[(2,6-difluorobenzyl)oxy]-2,6-dimethylimidazo[1,2-a]pyridine-3-carboxamide]
0.3 µM | Cc1cc(OCc2c(F)cccc2F)c2nc(C)c(C(=O)NC3CCCCC3C#N)n2c1 (stereo not shown) [Example 11, N-(2-cyanocyclohexyl)-8-[(2,6-difluorobenzyl)oxy]-2,6-dimethylimidazo[1,2-a]pyridine-3-carboxamide]
0.3 µM | Cc1cc(OCc2c(F)cccc2F)c2nc(C)c(C(=O)NC(C)C#N)n2c1 (single isomer, unassigned) [Example 15, ent-N-(1-Cyanoethyl)-8-[(2,6-difluorobenzyl)oxy]-2,6-dimethylimidazo[1,2-a]pyridine-3-carboxamide]
1 µM | Cc1cc(OCc2c(F)cccc2F)c2nc(C)c(C(=O)Nc3[nH]ncc3C#N)n2c1 [Example 33, N-(4-cyano-1H-pyrazol-5-yl)-8-[(2,6-difluorobenzyl)oxy]-2,6-dimethylimidazo[1,2-a]pyridine-3-carboxamide]

Continued, molecule first:

SMILES | MEC
Cc1nc2c(OCC3CCCCC3)cccn2c1C(=O)NC(C#N)c1ccc(Cl)cc1 (racemic) [Example 20, rac-N-[(4-chlorophenyl)(cyano)methyl]-8-(cyclohexylmethoxy)-2-methylimidazo[1,2-a]pyridine-3-carboxamide] | 1 µM
Cc1cc(OCCC(C(F)(F)F)C(F)(F)F)c2nc(C)c(C(=O)NC(C#N)c3ccc(Cl)cc3)n2c1 (racemic) [Example 23, rac-N-[(4-chlorophenyl)(cyano)methyl]-2,6-dimethyl-8-[4,4,4-trifluoro-3-(trifluoromethyl)butoxy]imidazo[1,2-a]pyridine-3-carboxamide] | 3 µM
COc1ccc(F)c(COc2cc(C)cn3c(C(=O)NC(C#N)c4ccc(Cl)cc4)c(C)nc23)c1F (racemic) [Example 22, rac-N-[(4-chlorophenyl)(cyano)methyl]-8-[(2,6-difluoro-3-methoxybenzyl)oxy]-2,6-dimethylimidazo[1,2-a]pyridine-3-carboxamide] | 3 µM
Cc1cc(OCc2c(F)ccc(F)c2F)c2nc(C)c(C(=O)NC(C#N)c3ccc(Cl)cc3)n2c1 (racemic) [Example 17, rac-N-[(4-Chlorophenyl)(cyano)methyl]-2,6-dimethyl-8-[(2,3,6-trifluorobenzyl)oxy]imidazo[1,2-a]pyridine-3-carboxamide] | 0.3 µM
Cc1nc2c(OCc3c(F)cccc3F)cc(Cl)cn2c1C(=O)NC(C#N)c1ccc(Cl)cc1 (racemic) [Example 29, rac-6-chloro-N-[(4-chlorophenyl)(cyano)methyl]-8-[(2,6-difluorobenzyl)oxy]-2-methylimidazo[1,2-a]pyridine-3-carboxamide] | 1 µM
Cc1nc2c(OCc3ncccc3F)cccn2c1C(=O)NC(C#N)c1ccc(Cl)cc1 (racemic) [Example 21, rac-N-[(4-chlorophenyl)(cyano)methyl]-8-[(3-fluoropyridin-2-yl)methoxy]-2-methylimidazo[1,2-a]pyridine-3-carboxamide] | 10 µM
Cc1cc(OCc2c(F)cncc2F)c2nc(C)c(C(=O)NC(C#N)c3ccc(Cl)cc3)n2c1 (racemic) [Example 30, rac-N-[(4-chlorophenyl)(cyano)methyl]-8-[(3,5-difluoropyridin-4-yl)methoxy]-2,6-dimethylimidazo[1,2-a]pyridine-3-carboxamide] | 1 µM
Cc1cc(OCCC(C)C)c2nc(C)c(C(=O)NC(C#N)c3ccc(Cl)cc3)n2c1 (racemic) [Example 25, rac-N-[(4-chlorophenyl)(cyano)methyl]-2,6-dimethyl-8-(3-methylbutoxy)imidazo[1,2-a]pyridine-3-carboxamide] | 3 µM
Cc1cc(OCC2CC(F)(F)C2)c2nc(C)c(C(=O)NC(C#N)c3ccc(Cl)cc3)n2c1 (racemic) [Example 31, rac-N-[(4-chlorophenyl)(cyano)methyl]-8-[(3,3-difluorocyclobutyl)methoxy]-2,6-dimethylimidazo[1,2-a]pyridine-3-carboxamide] | 10 µM
N#CC(NC(=O)c1cnc2c(OCc3c(F)cccc3F)cccn12)c1ccc(Cl)cc1 (racemic) [Example 18, rac-N-[(4-chlorophenyl)(cyano)methyl]-8-[(2,6-difluorobenzyl)oxy]imidazo[1,2-a]pyridine-3-carboxamide] | 10 µM
